The results in this text go back to PubChem BioAssay (NCI).

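Briefly, cells in 96-well plates were exposed to five compound concentrations for 48 h, and endpoints were estimated by linear interpolation. GI50 is the concentration that inhibits growth by half. The concentration for full growth arrest is given as TGI.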

Common to all, as to experiment: inhibition of tumour cell growth, NCI panel, 48 h
Experiment [1] concerns SW-620 colon.
Experiment [2] has as its system OVCAR-4 ovarian.
For experiment [3], the system named is CCRF-CEM leukemia.
Experiment [4] concerns HOP-62 NSCLC.
For experiment [5], the system named is SF-539 CNS.
The test system of experiment [6] is NCI-H460 lung.
In experiment [7] the test system is ACHN renal.
Experiment [8] relates to RPMI-8226 leukemia.
For experiment [9], the system named is EKVX NSCLC.
The test system of experiment [10] is K-562 leukemia.

For `CCOC(=O)[C@@H](N)CCC(=O)N[C@@H](CSCc1ccccc1)C(=O)N[C@@H](C(=O)OCC)c1ccccc1`, the GI50 in experiment [1] is 20.7 µM; in [2], 27.5 µM; in [3], 21.8 µM; in [4], 16.6 µM; in experiment [5] it was 17.6 µM; in experiment [6], 27.1 µM. In addition, the GI50 in [7] is 18.6 µM; in experiment [8], 17.8 µM; in experiment [9] it was 25.2 µM; in experiment [10] it was 22.2 µM. Besides, the TGI in [1] was 49.2 µM; in experiment [2], greater than 57.1 µM; in experiment [3], greater than 67.7 µM; in [4], 32.8 µM; in experiment [5], 33.8 µM; in experiment [6], greater than 69.8 µM. The TGI in [7] was 34.8 µM; in [8], 45.1 µM; in experiment [9], greater than 73.3 µM; in experiment [10], 75 µM.

For the compound `CN1CCN(CCCOc2ccc3nc(Nc4ccc(Cl)c(C(F)(F)F)c4)ccc3c2)CC1`, the GI50 in experiment [1] is 8.97 µM; in experiment [2], 12.7 µM; in experiment [3], 6 µM; in experiment [4] it was 14.9 µM; in experiment [5], 13.8 µM; in experiment [6], 16.4 µM. The GI50 in experiment [7] was 12.5 µM; in [8], 14.3 µM; in experiment [9], 15 µM; in [10], 2.4 µM. For the same compound, the TGI stood at 22.1 µM in experiment [1]; 26.4 µM in [2]; 22.1 µM in experiment [3]; 29.6 µM in experiment [4]; 33.3 µM in experiment [5]; 39.1 µM in experiment [6]. Besides, the TGI in [7] amounted to 32 µM; in [8], 34.2 µM; in experiment [9], 29.1 µM; in experiment [10] it was 5.78 µM.

For the compound `COC(=O)[C@@H](C)CNS(=O)(=O)N(c1cc(C(F)(F)F)cc(C(F)(F)F)c1)C1CCN(Cc2ccc(F)cc2)CC1`, the GI50 in experiment [1] was 11.1 µM; in experiment [2], 11.9 µM; in experiment [3], 12.8 µM; in [4], 15 µM; in experiment [5] it was 13.2 µM; in experiment [6] it was 7.13 µM. The GI50 in experiment [7] is 14 µM; in experiment [8], 7.57 µM; in experiment [9], 12.2 µM; in [10] it was 4.63 µM. For the same compound, the TGI in experiment [1] stood at 24.9 µM; in [2], 24.7 µM; in experiment [3], 30.7 µM; in [4] it was 29 µM; in [5], 26.4 µM; in experiment [6] it was 22.1 µM. Further, the TGI in experiment [7] came to 30 µM; in experiment [8], 25.6 µM; in [9], 28.9 µM; in experiment [10], 16 µM.

`CN1C/C=C\CCOc2cccc(c2)-c2ccnc(n2)Nc2cccc(c2)C1`: the GI50 is 0.0439 µM in [1]; 0.113 µM in experiment [2]; 0.0349 µM in experiment [3]; 0.0482 µM in experiment [4]; 0.0508 µM in [5]; 0.0398 µM in experiment [6]. Further, the GI50 in experiment [7] was 0.0332 µM; in [8], 0.0804 µM; in experiment [9], 0.0872 µM; in experiment [10], 0.0931 µM. The TGI in experiment [1] turned out to be 4.49 µM; in experiment [2] it was 1.88 µM; in [3], 1.04 µM; in experiment [4], 0.402 µM; in experiment [5], 0.227 µM; in experiment [6], 1.14 µM. Besides, the TGI in experiment [7] worked out at 1.49 µM; in experiment [8], 0.318 µM; in experiment [9], 0.961 µM; in experiment [10], 6.21 µM.

For the compound `Cc1ccc(C2=C(c3ccccc3)C(Br)(c3ccc(C)cc3)C(c3ccccc3)=C2c2ccc(C)cc2)cc1`, the TGI in experiment [1], in experiment [2], in experiment [3], in experiment [4], in [5] and in experiment [6] was greater than 100 µM throughout. In addition, the TGI in [7], in experiment [8], in experiment [9] and in [10] was greater than 100 µM throughout.

Regarding `COC(=O)C1=CNC=C(C(=O)OC)C1C1=CC(=O)C(C)=CC1=O`, the GI50 in experiment [1] is 8.43 µM; in experiment [2] it was 20.7 µM; in [3] it was 4.3 µM; in [4] it was 14.8 µM; in [5], 14.9 µM; in experiment [6] it was 14.2 µM. Also, the GI50 in [7] was 2.52 µM; in experiment [8] it was 2.9 µM; in [9], 16.3 µM; in experiment [10], 1.36 µM. The TGI in experiment [1] is 22.2 µM; in experiment [2], 61.7 µM; in experiment [4], 28.2 µM; in experiment [5], 29.6 µM; in experiment [6], 30.5 µM; in experiment [7], 8.18 µM. Further, the figures for the TGI in experiment [8], in [9] and in [10] were 7.5 µM, 30 µM and 3.84 µM, respectively.

Take `COc1nc2ccccc2cc1-c1nc2c(cnn2-c2ccc(Br)cc2)c(=O)[nH]1`: the GI50 is 0.0228 µM in [1]; 0.0238 µM in experiment [3]; 0.0363 µM in [4]; 0.0194 µM in experiment [5]; 0.0241 µM in experiment [6]; 0.0345 µM in experiment [7]. In addition, the GI50 in [8] is 0.0402 µM; in experiment [9], 0.0817 µM; in experiment [10], 0.0182 µM. Further, the TGI in [1] is greater than 50 µM; in experiment [2], greater than 50 µM; in [3], greater than 31.8 µM; in [4] it was 7.39 µM; in experiment [5], 1.63 µM; in experiment [6], greater than 50 µM. The TGI is greater than 50 µM in experiment [7], 6.79 µM in experiment [8], greater than 50 µM in [9] and 13.4 µM in experiment [10].

For the compound `COc1cc2c(cc1OC)C(CC(=O)NN=C(C)C)NCC2` (stereo not drawn), the TGI in [1], in experiment [2], in experiment [3], in experiment [4], in experiment [5] and in experiment [6] was greater than 100 µM each time. Further, the TGI in experiment [7], in [8], in experiment [9] and in experiment [10] was greater than 100 µM each time.
